Test results published in patent publication US9513288B2, “Isoform-selective inhibitors and activators of PDE3 cyclic nucleotide phosphodiesterases” (The United States of America, as represented by the …, priority 2001, dated 2016).
Like-named read-outs stand apart in the source and are kept apart here.

What was measured:
PDE3A1 [1] = assay: cAMP-hydrolytic activity of FLAG-tagged PDE3A1 in transfected HEK293 cells; type: cell-based, human; details: 1 mM dBcAMP 1 hour; for cAMP-hydrolytic activity of PDE3A1: 1 μM isoproterenol 90 sec, 50 μM 8-pCPT-2′-O-Me-cAMP or 0.1 mM sodium butyrate 1 hour
Procedure: FIG. 3 Illustrates an illustrative effect of d8-pCPT-2′-O-Me-cAMP and sodium butyrate on PDE3A1 activity, wherein HEK293 cells were transfected with FLAG-tagged PDE3A and treated with 50 μM d8-pCPT-2′-O-Me-cAMP, 0.1 mM sodium butyrate or 1 mM dBcAMP for 1 hour. PDE3A activity was assayed as described;
(§1) FIGS. 9A-9B illustrate stimulation of PDE3A2 and PDE3A1 activity in response to PKC and PKA activation. (A) HEK293 cells were transfected with FLAG-tagged PDE3A2, with and without alanine substitution at S428, and treated with 10 ng/ml PMA for 15 min or 1 mM dBcAMP for 1 hour. (B) HEK293 cells were transfected with FLAG-tagged PDE3A1, with and without alanine substitutions at S312 and S428, and treated with 1 μM isoproterenol for 90 sec, 10 ng/ml PMA for 15 min or 1 mM dBcAMP for 1 hour. PDE3 activity was assayed as described. PDE3A constructs were immunoprecipitated with anti-FLAG antibody, and phosphorylation was analyzed by immunoblotting with anti-FLAG and phosphospecific antibodies as indicated; and
(§2) PKA and PKC modulate the catalytic activity of PDE3A and PDE3A2 through distinct molecular mechanisms: In view of the reported effects of PKA and PKC on PDE3A activity^3-6, we examined the effects of phosphorylation at S312 and S428 on the cAMP-hydrolytic activity of PDE3A isoforms in transfected HEK293 cells. […] This stimulation was not observed when cells were treated with either the EPAC activator 8-pCPT-2′-O-Me-cAMP or with sodium butyrate (FIG. 3). […] To determine whether similar consequences of phosphorylation occur in the case of PDE3A isoforms, protein extracts from transfected HEK293 cells, untreated or exposed to either isoproterenol or PMA, were analyzed by gel-filtration chromatography, measurement of catalytic activity and Western blotting. Under basal conditions, PDE3 activity and protein was recovered in a biphasic pattern in low- and high-molecular-weight peaks (FIG. 5).
(§3) Measurement of cAMP-hydrolytic activity: cAMP-hydrolytic activity was quantified at 30° C. by the two-step snake-venom method with [^3H]cAMP (1 μM) as substrate; PDE3 activity was quantified by measuring activity in the absence and presence of cilostamide. The amount of protein used per assay and the incubation times were adjusted to ensure that no more than 20% of the total cyclic nucleotide was hydrolyzed during the assay.
(§4) Treatment of cells with pharmacologic agents: HEK293 cells expressing the human PDE3A constructs were incubated at 37° C. in serum-free medium containing isoproterenol for 90 sec or PMA for 15 min. At the end of the incubation period, cells were solubilized in lysis buffer containing 20 mM MOPS pH 7.2, 15 mM MgCl2, 0.5% NP40, 150 mM NaCl, 5 mM EDTA, protease inhibitor cocktail and phosphatase inhibitor cocktail 3. Cellular debris was removed by centrifugation (1,000×g; 5 min), and cleared supernatants were used in the experiments.

PDE3A2 [2] = assay: Gel-filtration chromatography and two-dimensional analysis of proteins co-immunoprecipitated with PDE3A2 from transfected HEK293 cells; type: cell-based, human; details: 10 ng/ml PMA 15 min; isoelectric focusing and SDS-PAGE
Procedure: (§5) FIGS. 5A-5B Illustrate two-dimensional analysis of HEK293 cell proteins co-immunoprecipitated with PDE3A, wherein FLAG-tagged PDE3A1- and PDE3A2-transfected HEK293 cells were treated with 1 μM isoproterenol for 90 sec or 10 ng/ml PMA for 15 min, respectively; untransfected, untreated cells served as controls. PDE3A1 and PDE3A2 were immunoprecipitated with anti-FLAG antibody. PDE3A isoforms and co-immunoprecipitated proteins were eluted with 250 μg/ml of 3×FLAG peptide and submitted to isoelectric focusing followed by SDS-PAGE. Proteins were visualized by silver staining, and spots were quantified and analyzed for inter-gel comparison using PDquest 8.1 software. Experiments were carried out in triplicate, such that (A) Images from one experiment are shown. […]
(§6) PKA and PKC modulate the catalytic activity of PDE3A and PDE3A2 through distinct molecular mechanisms: In view of the reported effects of PKA and PKC on PDE3A activity^3-6, we examined the effects of phosphorylation at S312 and S428 on the cAMP-hydrolytic activity of PDE3A isoforms in transfected HEK293 cells. […] To determine whether similar consequences of phosphorylation occur in the case of PDE3A isoforms, protein extracts from transfected HEK293 cells, untreated or exposed to either isoproterenol or PMA, were analyzed by gel-filtration chromatography, measurement of catalytic activity and Western blotting. […]

PDE3A1 [3] = assay: Phosphorylation and 14-3-3 binding of FLAG-tagged PDE3A1 in transfected HEK293 cells; type: cell-based, human; details: PMA 10 ng/ml 15 min; for phosphorylation of PDE3A1 at S428 / phosphorylation of PDE3A1 at S312: dibutyryl cAMP 1 mM 1 hour, phosphospecific antibodies; for binding of PDE3A1 to endogenous 14-3-3 (co-immunoprecipitation) / phosphorylation of PDE3A1 at S312: isoproterenol 90 sec
Procedure: (§7) FIGS. 8A-8C Illustrate phosphorylation of PDE3A1 and PDE3A2 in response to PKA and PKC activation. HEK293 cells were transfected with FLAG-tagged PDE3A2 and PDE3A1. (A) Prior to lysis and immunoprecipitation with anti-FLAG antibodies, cells were treated with 1 µM isoproterenol for 90 sec or 10 ng/ml PMA for 15 min. (B) The experiment was carried out in cells incubated in the absence and presence of 100 μM IBMX before treatment with 1 µM isoproterenol for 90 sec. (C) FLAG-tagged PDE3A2 and PDE3A1, affinity-purified from transfected cells using anti-FLAG antibodies, were incubated in the absence or presence of 10 or 100 nM PKA and 200 μM ATP for 20 min at 30° C. Phosphorylation was analyzed by Western blotting with phosphospecific antibodies as indicated.
(§8) Furthermore, when affinity-purified FLAG-tagged PDE3A and PDE3A2 were phosphorylated in vitro by PKA, PDE3A2 was phosphorylated more robustly than PDE3A1 at both S312 and S428 (for both isoforms, S312 was phosphorylated more robustly than S428) […].
(§9) Activation of PKC by PMA in transfected HEK293 cells results in selective phosphorylation of PDE3A2 at S428: We compared the effects of PKC activation by PMA on the phosphorylation of FLAG-tagged PDE3A1 and PDE3A2 in transfected HEK293 cells.
(§10) Illustrative immunoprecipitation and immunoblotting: Endogenous or recombinant human PDE3A, its fragments or mutants, endogenous 14-3-3 or GST-14-3-3 proteins were immunoprecipitated by incubation overnight at 4° C. with anti-FLAG(M2)-coupled agarose beads or glutathione sepharose beads. Beads were centrifuged (5,000×g, 1 min) and washed four times with 1 ml buffer containing 20 mM MOPS pH 7.2, 15 mM MgCl2, 0.5% NP40 and 150 mM NaCl. Proteins were subjected to SDS-PAGE (8% polyacrylamide) and electrophoretic transfer to nitrocellulose membranes. Membranes were blocked using 5% nonfat milk in Tris-buffered saline (50 mM Tris pH 7.5, 150 mM NaCl, 0.1% Tween-20) for 1 h at room temperature and incubated with primary and HRP-conjugated secondary antibodies prepared in 5% (w/v) bovine serum albumin. Protein bands were visualized using an enhanced chemiluminescence detection system.
as §4

PDE3A2 [4] = assay: Phosphorylation and 14-3-3 binding of FLAG-tagged PDE3A2 in transfected HEK293 cells; type: cell-based, human; details: for phosphorylation of PDE3A2 at S312 / phosphorylation of PDE3A2 at S428: isoproterenol 90 sec, dibutyryl cAMP 1 mM 1 hour, phosphospecific antibodies
Procedure: as §7, §8, §9, §10, §4

PDE3A2 [5] = assay: cAMP-hydrolytic activity of FLAG-tagged PDE3A2 in transfected HEK293 cells; type: cell-based, human; details: 10 ng/ml PMA 15 min, 1 mM dBcAMP 1 hour; for cAMP-hydrolytic activity of PDE3A2: isoproterenol
Procedure: as §1, §2, §3, §4

[6] = treatment of dilated cardiomyopathy; cited from earlier work
PDE3 = assay: cAMP-hydrolytic activity in cytosolic and microsomal fractions of human myocardium; type: biochemical
PDE3A1 [7] = assay: Gel-filtration chromatography and two-dimensional analysis of proteins co-immunoprecipitated with PDE3A1 from transfected HEK293 cells; type: cell-based, human; details: 1 μM isoproterenol 90 sec
Procedure: as §5, §6

3T3 adipocytes = assay: Association of PKB with PDE3B in microsomal fractions of 3T3 adipocytes; type: cell-based; details: not shown
Text: The interactions of PKB with PDE3B were examined. Microsomal fractions of 3T3 adipocytes (which express PDE3B) were solubilized with NP-40 and fractionated by gel filtration. […] An association between PKB and PDE3B was confirmed by the ability of anti-PDE3B antibodies to co-immunoprecipitate the two proteins in the PDE3B peak (not shown).

## CO[C@@H]1[C@@H]2OP(=O)(O)OC[C@H]2O[C@H]1n1c(Sc2ccc(Cl)cc2)nc2c(N)ncnc21 [8-pCPT-2′-O-Me-cAMP]
PDE3A1 [1]
  cAMP-hydrolytic activity of PDE3A1: not observed

## CCCCCCCCCCCCCC(=O)O[C@@H]1[C@@H](C)[C@@]2(O)[C@@H](C=C(CO)C[C@]3(O)C(=O)C(C)=C[C@@H]23)[C@@H]2C(C)(C)[C@]12OC(C)=O [PMA]
PDE3A2 [2]
  number of proteins co-immunoprecipitated with PDE3A2: increased the number of proteins that co-immunoprecipitated with PDE3A2
PDE3A1 [3]
  phosphorylation of PDE3A1 at S428: little increase in phosphorylation at S428
  binding of PDE3A1 to endogenous 14-3-3 (co-immunoprecipitation): little increase in binding to endogenous 14-3-3
  phosphorylation of PDE3A1 at S312: no increase in phosphorylation of S312
PDE3A2 [4]; PMA 10 ng/ml 15 min
  binding of PDE3A2 to endogenous 14-3-3 (co-immunoprecipitation): increased binding to endogenous 14-3-3
  phosphorylation of PDE3A2 at S312: no increase in phosphorylation at S312
  phosphorylation of PDE3A2 at S428: marked increase in phosphorylation at S428
PDE3A2 [5]
  stimulation of cAMP-hydrolytic activity of PDE3A2 with S428A substitution: blocked
  cAMP-hydrolytic activity of PDE3A2: increase in cAMP-hydrolysis

## Nc1cc(-c2ccncc2)c[nH]c1=O [amrinone]
[6]
  initial hemodynamic responses: favorable hemodynamic responses

## O=C1CCc2cc(OCCCCc3nnnn3C3CCCCC3)ccc2N1 [cilostazol]
PDE3; cytosolic versus microsomal fractions of human myocardium
  effects on cAMP-hydrolytic activity: more potent effects in microsomal fractions

## CCCC(=O)Nc1ncnc2c1ncn2[C@@H]1O[C@@H]2COP(=O)(O)O[C@H]2[C@H]1OC(=O)CCC [dibutyryl cAMP]
PDE3A1 [1]
  cAMP-hydrolytic activity of PDE3A1: stimulation of cAMP-hydrolytic activity
  cAMP-hydrolytic activity of PDE3A1 construct with S312A and S428A substitutions: same stimulation of catalytic activity
PDE3A1 [3]
  phosphorylation of PDE3A1 at S428: significant increase in the phosphorylation of PDE3A at both S312 and S428
  phosphorylation of PDE3A1 at S312: significant increase in the phosphorylation of PDE3A at both S312 and S428
PDE3A2 [4]; PMA 10 ng/ml 15 min
  phosphorylation of PDE3A2 at S312: phosphorylation at both S312 and S428
  phosphorylation of PDE3A2 at S428: phosphorylation at both S312 and S428
PDE3A2 [5]
  stimulation of cAMP-hydrolytic activity of PDE3A2 with S428A substitution: similarly blocked by the S428A mutation

## CC(C)NCC(O)c1ccc(O)c(O)c1 (centres unmarked) [isoproterenol]
PDE3A1 [1]
  cAMP-hydrolytic activity of PDE3A1: did not stimulate cAMP-hydrolytic activity
PDE3A1 [3]
  binding of PDE3A1 to endogenous 14-3-3 (co-immunoprecipitation): co-immunoprecipitation of endogenous 14-3-3
  phosphorylation of PDE3A1 at S312: phosphorylation of PDE3A1 at S312
PDE3A2 [4]; 100 μM IBMX before isoproterenol for 90 sec
  phosphorylation of PDE3A2 at S312 in the presence of IBMX: readily phosphorylated at S312
PDE3A2 [4]; PMA 10 ng/ml 15 min
  phosphorylation of PDE3A2 at S312: little phosphorylation of PDE3A2
  phosphorylation of PDE3A2 at S428: little phosphorylation of PDE3A2
PDE3A1 [7]
  elution of PDE3 activity and protein on Superose 6 gel filtration, PDE3A1-transfected cells: pronounced shift of activity and protein from low- to high-molecular-weight peaks
PDE3A1 [7]; isoelectric focusing and SDS-PAGE
  number of proteins co-immunoprecipitated with PDE3A1: increased the number of proteins that co-immunoprecipitated with PDE3A1
PDE3A2 [5]
  cAMP-hydrolytic activity of PDE3A2: no stimulation of either isoform

## Cc1[nH]c(=O)c(C#N)cc1-c1ccncc1 [milrinone]
PDE3
  effects on cAMP-hydrolytic activity: more potent effects in microsomal fractions

## CCCC(=O)[O-].[Na+] [sodium butyrate]
PDE3A1 [1]
  cAMP-hydrolytic activity of PDE3A1: not observed

## insulin: insulin, used to treat 3T3 adipocytes
3T3 adipocytes; gel filtration
  percentage of PKB co-purifying with PDE3B: appeared to increase the percentage of PKB co-purifying with PDE3B
3T3 adipocytes
  phosphorylation of PKB: increased the phosphorylation of PKB
